Reference: ChEMBL document CHEMBL1201861, “Genomics of Drug Sensitity in Cancer screening data, Wellcome Trust Sanger Institute”

Key:
[1] = system: MKN-28; test: cells; assay type: functional, cell-based; conditions: Homo sapiens;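 note: cell viability assay read-out, IC50 reflects suppression of growth of human MKN-28 cells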
Description: SANGER: Inhibition of human MKN28 cell growth in a cell viability assay.

[2] = system: ChaGo-K-1; test: cells; assay type: functional, cell-based; conditions: Homo sapiens;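 note: growth inhibition of ChaGo-K-1 cells, read out with a cell viability assay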
Description: SANGER: Inhibition of human ChaGo-K-1 cell growth in a cell viability assay.

[3] = system: HOS; test: cells; assay type: functional, cell-based; conditions: Homo sapiens;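 note: growth inhibition of human HOS cells, read out with a cell viability assay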
Description: SANGER: Inhibition of human HOS cell growth in a cell viability assay.

[4] = system: IGROV-1; test: cells; assay type: functional, cell-based; conditions: Homo sapiens;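 note: reduction of IGROV-1 cell growth, read out with a viability assay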
Description: SANGER: Inhibition of human IGROV-1 cell growth in a cell viability assay.

[5] = system: IST-SL2; test: cells; assay type: functional, cell-based; conditions: Homo sapiens;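 note: growth inhibition of human IST-SL2 cells, read out by a cell viability assay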
Description: SANGER: Inhibition of human IST-SL2 cell growth in a cell viability assay.

[6] = system: NCI-H2030; test: cells; assay type: functional, cell-based; conditions: Homo sapiens;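 note: growth inhibition of human NCI-H2030 cells, read out by a cell viability assay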
Description: SANGER: Inhibition of human NCI-H2030 cell growth in a cell viability assay.

[7] = system: JEG-3; test: cells; assay type: functional, cell-based; conditions: Homo sapiens;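 note: growth inhibition of human JEG-3 cells, read out with a cell viability assay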
Description: SANGER: Inhibition of human JEG-3 cell growth in a cell viability assay.

[8] = system: BCPAP; test: cells; assay type: functional, cell-based; conditions: Homo sapiens;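 note: growth inhibition of BCPAP cells, read out in a cell viability assay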
Description: SANGER: Inhibition of human BCPAP cell growth in a cell viability assay.

[9] = system: BHT-101; test: cells; assay type: functional, cell-based; conditions: Homo sapiens
Description: SANGER: Inhibition of human BHT-101 cell growth in a cell viability assay.

[10] = system: A673; test: cells; assay type: functional, cell-based; conditions: Homo sapiens;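 note: growth inhibition of human A673 cells, read out through a cell viability assay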
Description: SANGER: Inhibition of human A673 cell growth in a cell viability assay.

[11] = system: SR; test: cells; assay type: functional, cell-based; conditions: Homo sapiens
Description: SANGER: Inhibition of human SR cell growth in a cell viability assay.

[12] = system: HCC1937; test: cells; assay type: functional, cell-based; conditions: Homo sapiens;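 note: growth inhibition measured with a cell viability read-out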
Description: SANGER: Inhibition of human HCC1937 cell growth in a cell viability assay.

[13] = system: MHH-ES-1; test: cells; assay type: functional, cell-based; conditions: Homo sapiens
Description: SANGER: Inhibition of human MHH-ES-1 cell growth in a cell viability assay.

[14] = system: MC-CAR; test: cells; assay type: functional, cell-based; conditions: Homo sapiens;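 note: growth inhibition of the human MC-CAR cell line, read out by a cell viability assay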
Description: SANGER: Inhibition of human MC-CAR cell growth in a cell viability assay.

[15] = system: FTC-133; test: cells; assay type: functional, cell-based; conditions: Homo sapiens
[16] = system: NCI-H1522; test: cells; assay type: functional, cell-based; conditions: Homo sapiens;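 note: growth inhibition of NCI-H1522 cells, read out with a cell viability assay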
Description: SANGER: Inhibition of human NCI-H1522 cell growth in a cell viability assay.

[17] = system: SW1573; test: cells; assay type: functional, cell-based; conditions: Homo sapiens;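 note: growth inhibition of SW1573 cells, read out with a cell viability assay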
Description: SANGER: Inhibition of human SW1573 cell growth in a cell viability assay.

[18] = system: G-401; test: cells; assay type: functional, cell-based; conditions: Homo sapiens
Description: SANGER: Inhibition of human G-401 cell growth in a cell viability assay.

[19] = system: MDA-MB-453; test: cells; assay type: functional, cell-based; conditions: Homo sapiens
Description: SANGER: Inhibition of human MDA-MB-453 cell growth in a cell viability assay.

[20] = system: KP-4; test: cells; assay type: functional, cell-based; conditions: Homo sapiens;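 note: human KP-4 cells, with growth inhibition read out through a cell viability assay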
Description: SANGER: Inhibition of human KP-4 cell growth in a cell viability assay.

[21] = system: NCCIT; test: SANGER: Inhibition of human NCCIT cell growth in a cell viability assay.; assay type: functional, cell-based
[22] = system: 5637; test: cells; assay type: functional, cell-based; conditions: Homo sapiens
Description: SANGER: Inhibition of human 5637 cell growth in a cell viability assay.

[23] = system: NCI-H2081; test: cells; assay type: functional, cell-based; conditions: Homo sapiens;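 note: growth inhibition of human NCI-H2081 cells, read out with a cell viability assay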
Description: SANGER: Inhibition of human NCI-H2081 cell growth in a cell viability assay.

[24] = system: NCI-H358; test: cells; assay type: functional, cell-based; conditions: Homo sapiens;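 note: growth inhibition of NCI-H358 human cells, read out with a cell viability assay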
Description: SANGER: Inhibition of human NCI-H358 cell growth in a cell viability assay.

[25] = system: SCC-25; test: cells; assay type: functional, cell-based; conditions: Homo sapiens;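 note: growth inhibition of SCC-25 cells, measured with a cell viability assay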
Description: SANGER: Inhibition of human SCC-25 cell growth in a cell viability assay.

[26] = system: EFM-19; test: cells; assay type: functional, cell-based; conditions: Homo sapiens;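 note: growth inhibition of human EFM-19 cells, measured in a cell viability assay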
Description: SANGER: Inhibition of human EFM-19 cell growth in a cell viability assay.

[27] = system: VM-CUB-1; test: cells; assay type: functional, cell-based; conditions: Homo sapiens;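 note: cell viability assay measuring growth inhibition of the human VM-CUB-1 cell line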
Description: SANGER: Inhibition of human VM-CUB-1 cell growth in a cell viability assay.

[28] = system: NCI-H1437; test: cells; assay type: functional, cell-based; conditions: Homo sapiens;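 note: growth inhibition of human NCI-H1437 cells, read out by a cell viability assay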
Description: SANGER: Inhibition of human NCI-H1437 cell growth in a cell viability assay.

[29] = system: NCI-H1793; test: cells; assay type: functional, cell-based; conditions: Homo sapiens;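 note: cell growth inhibition, read out by a cell viability assay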
Description: SANGER: Inhibition of human NCI-H1793 cell growth in a cell viability assay.

[30] = system: HMV-2 cell line; test: cells; assay type: functional, cell-based; conditions: Homo sapiens;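 note: growth inhibition of HMV-II cells, read out with a cell viability assay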
Description: SANGER: Inhibition of human HMV-II cell growth in a cell viability assay.

[31] = system: MFE-280; test: cells; assay type: functional, cell-based; conditions: Homo sapiens;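 note: growth inhibition of MFE-280 cells, determined with a cell viability readout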
Description: SANGER: Inhibition of human MFE-280 cell growth in a cell viability assay.

[32] = system: NCI-H522; test: cells; assay type: functional, cell-based; conditions: Homo sapiens;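 note: cell viability assay measuring growth inhibition of human NCI-H522 cells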
Description: SANGER: Inhibition of human NCI-H522 cell growth in a cell viability assay.

[33] = system: KYSE-150 cell line; test: cells; assay type: functional, cell-based; conditions: Homo sapiens;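 note: growth inhibition of human KYSE-150 cells, read out with a cell viability assay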
Description: SANGER: Inhibition of human KYSE-150 cell growth in a cell viability assay.

[34] = system: CAL-12T; test: cells; assay type: functional, cell-based, Homo sapiens; conditions: Homo sapiens, CAL-12T;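 note: growth inhibition of human CAL-12T cells, read out with a cell viability assay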
Description: SANGER: Inhibition of human CAL-12T cell growth in a cell viability assay.

[35] = system: SAOS-2; test: cells; assay type: functional, cell-based; conditions: Homo sapiens;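 note: growth inhibition of human Saos-2 cells determined by a cell viability assay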
Description: SANGER: Inhibition of human Saos-2 cell growth in a cell viability assay.

[36] = system: MONO-MAC-6; test: cells; assay type: functional, cell-based; conditions: Homo sapiens;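 note: cell viability assay measuring growth inhibition of human MONO-MAC-6 cells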
Description: SANGER: Inhibition of human MONO-MAC-6 cell growth in a cell viability assay.

[37] = system: MHH-CALL-2; test: cells; assay type: functional, cell-based; conditions: Homo sapiens;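 note: growth inhibition of the cell line, read out in a cell viability assay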
Description: SANGER: Inhibition of human MHH-CALL-2 cell growth in a cell viability assay.

[38] = system: NCI-H727; test: cells; assay type: functional, cell-based; conditions: Homo sapiens;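 note: growth inhibition of human NCI-H727 cells, read out with a cell viability assay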
Description: SANGER: Inhibition of human NCI-H727 cell growth in a cell viability assay.

[39] = system: Raji; test: cells; assay type: functional, cell-based; conditions: Homo sapiens;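 note: cell viability assay measuring inhibition of Raji cell growth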
Description: SANGER: Inhibition of human Raji cell growth in a cell viability assay.

[40] = system: HN; test: cells; assay type: functional, cell-based; conditions: Homo sapiens
Description: SANGER: Inhibition of human HN cell growth in a cell viability assay.

[41] = system: NCI-H187; test: cells; assay type: functional, cell-based; conditions: Homo sapiens;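 note: growth inhibition of NCI-H187 cells, read out as cell viability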
Description: SANGER: Inhibition of human NCI-H187 cell growth in a cell viability assay.

[42] = system: Detroit 562; test: cells; assay type: functional, cell-based; conditions: Homo sapiens;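 note: growth inhibition of human Detroit 562 cells, read out by a cell viability assay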
Description: SANGER: Inhibition of human Detroit562 cell growth in a cell viability assay.

[43] = system: SW756; test: cells; assay type: functional, cell-based; conditions: Homo sapiens;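 note: growth inhibition of human SW756 cells, read out with a cell viability assay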
Description: SANGER: Inhibition of human SW756 cell growth in a cell viability assay.

[44] = system: SBC-5; test: cells; assay type: functional, cell-based; conditions: Homo sapiens;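 note: cell viability assay read-out, IC50 is the concentration that inhibits growth of the cells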
Description: SANGER: Inhibition of human SBC-5 cell growth in a cell viability assay.

[45] = system: JIYOYE; test: cells; assay type: functional, cell-based; conditions: Homo sapiens
Description: SANGER: Inhibition of human JiyoyeP-2003 cell growth in a cell viability assay.

[46] = system: SKG-IIIa; test: cells; assay type: functional, cell-based; conditions: Homo sapiens;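 note: cell growth inhibition, read out with a cell viability assay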
Description: SANGER: Inhibition of human SKG-IIIa cell growth in a cell viability assay.

[47] = system: YT; test: cells; assay type: functional, cell-based; conditions: Homo sapiens
Description: SANGER: Inhibition of human YT cell growth in a cell viability assay.

[48] = system: NCI-H719; test: cells; assay type: functional, cell-based; conditions: Homo sapiens;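 note: growth inhibition of the cultured cell line, read out with a viability assay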
Description: SANGER: Inhibition of human NCI-H719 cell growth in a cell viability assay.

[49] = system: CAL-148; test: cells; assay type: functional, cell-based; conditions: Homo sapiens
Description: SANGER: Inhibition of human CAL-148 cell growth in a cell viability assay.

[50] = system: NCI-H520; test: cells; assay type: functional, cell-based; conditions: Homo sapiens;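 note: growth inhibition of NCI-H520 cells, measured by a cell viability assay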
Description: SANGER: Inhibition of human NCI-H520 cell growth in a cell viability assay.

[51] = system: SW837; test: cells; assay type: functional, cell-based; conditions: Homo sapiens;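 note: growth inhibition of SW837 cells, determined with a cell viability assay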
Description: SANGER: Inhibition of human SW837 cell growth in a cell viability assay.

[52] = system: MRK-nu-1; test: cells; assay type: functional, cell-based; conditions: Homo sapiens;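 note: cell viability assay measuring growth suppression of human MRK-nu-1 cells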
Description: SANGER: Inhibition of human MRK-nu-1 cell growth in a cell viability assay.

[53] = system: EB2; test: cells; assay type: functional, cell-based; conditions: Homo sapiens;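 note: growth inhibition of EB2 cells, read out with a cell viability assay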
Description: SANGER: Inhibition of human EB2 cell growth in a cell viability assay.

[54] = system: T-24; test: cells; assay type: functional, cell-based; conditions: Homo sapiens;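 note: growth inhibition of T-24 cells, read out with a cell viability assay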
Description: SANGER: Inhibition of human T-24 cell growth in a cell viability assay.

[55] = system: NCI-H1417; test: cells; assay type: functional, cell-based; conditions: Homo sapiens;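 note: human NCI-H1417 cells, growth inhibition determined with a cell viability readout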
Description: SANGER: Inhibition of human NCI-H1417 cell growth in a cell viability assay.

[56] = system: GAMG; test: cells; assay type: functional, cell-based; conditions: Homo sapiens;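 note: cell growth inhibition measured by a viability assay in the GAMG human cell line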
Description: SANGER: Inhibition of human GAMG cell growth in a cell viability assay.

[57] = system: AGS; test: cells; assay type: functional, cell-based; conditions: Homo sapiens;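 note: growth inhibition of AGS cells, determined with a cell viability assay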
Description: SANGER: Inhibition of human AGS cell growth in a cell viability assay.

[58] = system: NCI-H1755; test: cells; assay type: functional, cell-based; conditions: Homo sapiens;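 note: cell viability readout used to measure growth inhibition of NCI-H1755 cells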
Description: SANGER: Inhibition of human NCI-H1755 cell growth in a cell viability assay.

[59] = system: TE-15; test: cells; assay type: functional, cell-based; conditions: Homo sapiens;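 note: cell viability readout of growth inhibition in TE-15 cells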
Description: SANGER: Inhibition of human TE-15 cell growth in a cell viability assay.

[60] = system: KYSE-180; test: cells; assay type: functional, cell-based; conditions: Homo sapiens;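 note: growth inhibition of KYSE-180 cells, read out with a cell viability assay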
Description: SANGER: Inhibition of human KYSE-180 cell growth in a cell viability assay.

[61] = system: NUGC-3; test: cells; assay type: functional, cell-based; conditions: Homo sapiens;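 note: growth inhibition of human NUGC-3 cells, read out with a cell viability assay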
Description: SANGER: Inhibition of human NUGC-3 cell growth in a cell viability assay.

[62] = system: HTC-C3; test: cells; assay type: functional, cell-based; conditions: Homo sapiens
Description: SANGER: Inhibition of human HTC-C3 cell growth in a cell viability assay.

[63] = system: PC-3; test: cells; assay type: functional, cell-based; conditions: Homo sapiens
Description: SANGER: Inhibition of human PC-3 cell growth in a cell viability assay.

[64] = system: SW1463; test: cells; assay type: functional, cell-based; conditions: Homo sapiens
Description: SANGER: Inhibition of human SW1463 cell growth in a cell viability assay.

Q: How did the IC50 [1] turn out when `N#C/C(=C1/Nc2ccccc2S1)c1ccnc(NCCc2cccnc2)n1` was run?
A: > 8 µM

Q: And the IC50 [2]?
A: 4.59 µM

Q: What about the IC50 [3] of the same compound?
A: > 8 µM

Q: What about the IC50 [4] of the same compound?
A: 0.603 µM

Q: What about the IC50 [5] of the same compound?
A: > 8 µM

Q: What about the IC50 [6] of the same compound?
A: > 8 µM

Q: What about the IC50 [7] of the same compound?
A: > 8 µM

Q: And the IC50 [8]?
A: 4.45 µM

Q: What about the IC50 [9] of the same compound?
A: > 8 µM

Q: And the IC50 [10]?
A: > 8 µM

Q: What about the IC50 [11] of the same compound?
A: 1.88 µM

Q: What about the IC50 [12] of the same compound?
A: 3.25 µM

Q: And the IC50 [13]?
A: > 8 µM

Q: What about the IC50 [14] of the same compound?
A: > 8 µM

Q: What about the IC50 [15] of the same compound?
A: > 8 µM

Q: And the IC50 [16]?
A: > 8 µM

Q: What about the IC50 [17] of the same compound?
A: > 8 µM

Q: What about the IC50 [18] of the same compound?
A: 2.82 µM

Q: And the IC50 [19]?
A: > 8 µM

Q: What about the IC50 [20] of the same compound?
A: 6.43 µM

Q: And the IC50 [21]?
A: > 8 µM

Q: What about the IC50 [22] of the same compound?
A: > 8 µM

Q: What about the IC50 [23] of the same compound?
A: > 8 µM

Q: What about the IC50 [24] of the same compound?
A: 1.9 µM

Q: What about the IC50 [25] of the same compound?
A: 5.31 µM

Q: What about the IC50 [26] of the same compound?
A: 5.39 µM

Q: What about the IC50 [27] of the same compound?
A: > 8 µM

Q: And the IC50 [28]?
A: 4.15 µM

Q: And the IC50 [29]?
A: > 8 µM

Q: And the IC50 [30]?
A: 0.793 µM

Q: And the IC50 [31]?
A: > 8 µM

Q: What about the IC50 [32] of the same compound?
A: 4.93 µM

Q: What about the IC50 [33] of the same compound?
A: > 8 µM

Q: What about the IC50 [34] of the same compound?
A: 1.3 µM

Q: And the IC50 [35]?
A: > 8 µM

Q: What about the IC50 [36] of the same compound?
A: > 8 µM

Q: What about the IC50 [37] of the same compound?
A: > 8 µM

Q: And the IC50 [38]?
A: 0.893 µM

Q: What about the IC50 [39] of the same compound?
A: > 8 µM

Q: What about the IC50 [40] of the same compound?
A: > 8 µM

Q: What about the IC50 [41] of the same compound?
A: > 8 µM

Q: What about the IC50 [42] of the same compound?
A: 7.08 µM

Q: What about the IC50 [43] of the same compound?
A: > 8 µM

Q: What about the IC50 [44] of the same compound?
A: 6.89 µM

Q: What about the IC50 [45] of the same compound?
A: > 8 µM

Q: What about the IC50 [46] of the same compound?
A: > 8 µM

Q: And the IC50 [47]?
A: > 8 µM

Q: What about the IC50 [48] of the same compound?
A: > 8 µM

Q: And the IC50 [49]?
A: > 8 µM

Q: What about the IC50 [50] of the same compound?
A: > 8 µM

Q: And the IC50 [51]?
A: 5.24 µM

Q: And the IC50 [52]?
A: > 8 µM

Q: And the IC50 [53]?
A: > 8 µM

Q: What about the IC50 [54] of the same compound?
A: > 8 µM

Q: What about the IC50 [55] of the same compound?
A: > 8 µM

Q: And the IC50 [56]?
A: > 8 µM

Q: And the IC50 [57]?
A: > 8 µM

Q: And the IC50 [58]?
A: > 8 µM

Q: What about the IC50 [59] of the same compound?
A: 2.22 µM

Q: What about the IC50 [60] of the same compound?
A: > 8 µM

Q: What about the IC50 [61] of the same compound?
A: > 8 µM

Q: What about the IC50 [62] of the same compound?
A: 6.52 µM

Q: What about the IC50 [63] of the same compound?
A: > 8 µM

Q: And the IC50 [64]?
A: > 8 µM
